Reference: US20130190275A1, “COMBINED THERAPIES OF ANTIPSYCHOTIC DRUGS AND TETRACYCLINES IN THE TREATMENT OF PSYCHIATRIC DISORDERS” (MOR RESEARCH APPLICATIONS LTD., priority 2006, published 2013)

Key:
[1] = tested on: MK801 treated rats; assay: Habituation of the Acoustic Startle Response (ASR), MK801 animal model; type: in vivo, rat
Protocol: Acoustic Startle Response (ASR) and Pre-Pulse Inhibition (PPI): Both experimental paradigms were performed in a room that was adjacent to the laboratory facilities and the animal stall and that was not used for other experiments. The animals were tested in squad of two with startle chambers counterbalanced across the different experimental groups. Startle response and prepulse inhibition were measured using two ventilated startle chambers (SR-LAB system, San Diego Instruments, San Diego, Calif.). Each chamber consisted of a Plexiglas cylinder resting on a platform inside a sound-attenuated, ventilated chamber. A high-frequency loudspeaker inside the chamber produced both a continuous broadband background noise of 70 dB and the various acoustic stimuli. Movement inside the tube was detected by a piezoelectric accelerometer below the frame. The amplitude of the whole body startle to an acoustic pulse was defined as the average of 100 one-msec accelerometer readings collected from pulse onset. These signals were then digitized and stored by a computer. Sound levels within each test chamber were measured routinely using a sound level meter (Radio Shack) to ensure consistent presentation. The SR-LAB calibration unit was used routinely to ensure consistent stabilimeter sensitivity between test chambers and over time (Swerdlow and Geyer, 1998, Schizophrenia Bulletin, 24(2), 285-301).
(§1) Fifteen minutes before the behavioral procedures conducted at the fourth day, the subject was injected i.p. with an 0.1 mg/kg dose of MK801 or saline, for a total volume of 1 ml per kg of body weight. Next, the subjects passed the three behavioral procedures, described in the following paragraphs.
ASR and PPI were measured using two startle chambers, with each chamber consisting of a Plexiglas cylinder resting on a platform inside a sound-attenuated, ventilated chamber (see also materials section). The animals were tested in pairs with startle chambers counterbalanced across the different experimental groups.
The ASR test measured the ability of the animal to habituate to repetitive loud pulses of noise. […] Movement inside the tube was detected by a piezoelectric accelerometer below the frame. The amplitude of the whole body startle to an acoustic pulse was defined as the average of 100 one-msec accelerometer readings collected from pulse onset. […]
Acoustic Startle Response (ASR): The decrease in ASR in the groups was calculated as the percent of amplitude decrease between the mean of the first five amplitude values and the mean of the last 25 amplitude values.
Percent habituation=100×[(average startle amplitude in Block 1)−(average startle amplitude in Block 5)/(average startle amplitude in Block 1)]. Results were analyzed by two-way ANOVA a between-subject measure of ‘group’ (treatment group).

[2] = tested on: MK801 treated rats; assay: Morris Water Maze (MWM) task, MK801 animal model of schizophrenia; type: in vivo, rat
Protocol: Morris Water Maze (MWM): The MWM consisted of a water pool (diameter=1.8 m; depth=0.6 m) containing water at 26±1° C. A hidden platform was located 1.5 cm below the water surface. Within the testing room, only distal visuo-spatial cues were available to the rats for location of the submerged platform. A video camera was placed above the center of the pool for tracking the rat, and a video tracking system (Noldus Information Technology b.v., Wageninpen, The Netherlands) with online digital output, directly fed data into a computer and analyzed. Data were analyzed by using an Etho-Vision automated tracking system (Noldus Information Technology).
as §1
The MWM, a hippocampal-dependent visuo-spatial learning task, was used to assess the subjects' spatial learning/memory. The ability of an animal to locate a hidden platform submerged under water by using extra-maze cues from the test environment was examined. The rats were trained in a pool 1.8 m in diameter and 0.6 m high, containing water at 26±1° C. A 10 cm square transparent platform was hidden in a constant position in the pool submerged 1 cm below the water level. Within the testing room only distal visuo-spatial cues were available to the rats for location of the submerged platform.
Rats were given four trials per day, to find the hidden platform (acquisition phase). The escape latency, i.e., the time required by the rat to find and climb onto the platform, was recorded for up to 120 sec. Each rat was allowed to remain on the platform for 30 sec, and was then removed to its home cage.
Morris Water Maze (MWM): Escape latency, the time between placing the rat in the pool until it located the platform, was measured during behavioral testing. The escape latency was analyzed by means of […] repeated measures analysis of variance (ANOVA) with a between-subjects measure of ‘group’ (treatment group) and a within-subjects measure of ‘trail’ (effects amongst groups in the four different trials).
The MWM test was then performed (see FIG. 1 for results). A significant main effect of ‘group’, ‘trail’ and a significant ‘group’×‘trails’ interaction was found in the repeated measured ANOVA for the MWM task [F(5,35)=9.699, p<0.001; F(3,33)=31.551, p<0.001; F(15,91)=1.824, p<0.05; respectively].

[3] = tested on: patients who experience first psychotic episode; assay: CANTAB Intra-extra dimensional set-shifts (IED), adjuvant study; type: in vivo, human; conditions: atypical antipsychotic drug+minocycline 200 mg/day vs +placebo; time x group p<0.0001
Protocol: The study was carried out in patients who experience first psychotic episode, and has followed the patient for a total duration of 6 months. As the study examines Minocycline as an adjuvant drug, the sample includes patients receiving one of the following atypical anti-psychotic drugs: Risperdal, Zyprexa, Geodon, Seroquel, and Leponex. […] In addition, the subjects were assessed by a battery of computerized neuropsychological tests (CANTAB—Cambridge Neuropsychological Test Automated Battery), measuring attention, memory, and planning. Minocycline was given as an add-on therapy. Prior to randomization into minocycline/placebo adjuvant treatment, a preliminary (lead-in phase) screening phase of placebo treatment was undertaken: Placebo was given as an adjuvant to all patients for two weeks. […] Randomization was then carried out by the principal investigator. […] Clinical status was evaluated by the aforementioned scales at the onset of the study, every week for the first 6 weeks, and then once a month for the rest of the study period. Cognitive capabilities were assessed by the neuropsychological battery of tests according to the following schedule: upon initiation of the study (referred to as visit 1 in FIGS. 5-8), 3 months (referred to as visit 2 in FIGS. 5-8), and 6 months (referred to as visit 3 in FIGS. 5-8) after the start of the study. […]

Compound: CN(C)c1ccc(O)c2c1C[C@H]1C[C@H]3[C@H](N(C)C)C(O)=C(C(N)=O)C(=O)[C@@]3(O)C(O)=C1C2=O [minocycline]
- percent habituation of the startle response (% habituation) ([1]; drug alone (no MK801) vs saline treated animals): no effect on habituation of ASR
- percent habituation of the startle response (% habituation) ([1]; drug+MK801 0.1 mg/kg i.p., minocycline 35 mg/kg x 3 days pretreatment, haloperidol 0.4 mg/kg i.p.): able to prevent the deficits induced by MK801
- escape latency, impairments induced by MK801 ([2]; main procedure: minocycline 35 mg/kg x 3 days, MK801 0.1 mg/kg i.p.): reduce the impairments induced by MK801
- escape latency, trail 4 ([2]; minocycline 35 mg/kg before MK801, vs MK801 group, p<0.05): significant difference when compared to the MK801 group
- escape latency, improvement compared with haloperidol ([2]; minocycline 35 mg/kg+MK801 vs haloperidol 0.4 mg/kg+MK801): somewhat more significant than that caused by haloperidol
- dose dependence of effect in the MWM task ([2]; minocycline 20, 25, 30, 35 mg/kg before MK801): good dose dependent effect
- escape latency ([2]; minocycline 20 and 25 mg/kg for three consecutive days before MK801, vs saline and MK801 groups): no significant differences with the MK801 treated rats
- escape latency ([2]; minocycline 30 and 35 mg/kg for three consecutive days before MK801, vs saline group): did not differ from the saline treated group
- IED measures (number of stages completed, total errors adjusted, Pre-ED errors, EDS errors) [3]: improved significantly more than the placebo group on all the IED measures except for the Pre-ED errors measure
